According to patent publication US20080249023A1 (priority 2004, published 2008):
Ends that are not written are not given here.

Columns and labels:
Bacillus subtilis = assay type: cell-based

| Sequence | effect on Bacillus subtilis in time kill assay (Bacillus subtilis) | detergent-like (lytic) activity (sheep red blood cells) |
| --- | --- | --- |
| RFARKGALRQKNV [Protein kinase C] | no effect | – |
| TRKKLFHIFHATIRSR [PAD-1.17, TRKKLFHIFHATIRSR] | – | did not appear to act as a detergent |
